Measurements as given in patent US11420958B2, “Aryl and heteroaryl substituted indole compounds” (BRISTOL-MYERS SQUIBB COMPANY, priority 2017, dated 2022).

Key:
Format in all cases: cell-based
human TLR7 = human TLR7 (Homo sapiens (Human), UniProt Q9NYK1); experiment: TLR7 inhibition reporter assay (HEK-Blue, SEAP); details: HEK-Blue cells overexpressing human TLR7, gardiquimod 7.5 μM stimulation
Experimental: (§1) TLR7/8/9 Inhibition Reporter Assays
(§2) HEK-Blue™-cells (Invivogen) overexpressing human TLR7, TLR8 or TLR9 receptors were used for screening inhibitors of these receptors using an inducible SEAP (secreted embryonic alkaline phosphatase) reporter gene under the control of the IFN-β minimal promoter fused to five NF-κc Band AP-1-binding sites. Briefly, cells are seeded into Greiner 384 well plates (15000 cells per well for TLR7, 20,000 for TLR8 and 25,000 for TLR9) and then treated with test compounds in DMSO to yield a final dose response concentration range of 0.05 nM-50 μM. After a 30 minute compound pre-treatment at room temperature, the cells are then stimulated with a TLR7 ligand (gardiquimod at a final concentration of 7.5 μM), TLR8 ligand (R848 at a final concentration of 15.9 μM) or TLR9 ligand (ODN2006 at final concentration of 5 nM) to activate NF-κB and AP-1 which induce the production of SEAP. After a 22 hour incubation at 37° C., 5% CO2, SEAP levels are determined with the addition of HEK-Bue™ Detection reagent (Invivogen), a cell culture medium that allows for detection of SEAP, according to manufacturer's specifications. The percent inhibition is determined as the % reduction in the HEK-Blue signal present in wells treated with agonist plus DMSO alone compared to wells treated with a known inhibitor.

human TLR9 = human TLR9 (Homo sapiens (Human), UniProt Q9NR96); experiment: TLR9 inhibition reporter assay (HEK-Blue, SEAP); details: HEK-Blue cells overexpressing human TLR9, ODN2006 5 nM stimulation
Experimental: as §1, §2

human TLR8 = human TLR8 (Homo sapiens (Human), UniProt Q9NR97); experiment: TLR8 inhibition reporter assay (HEK-Blue, SEAP); details: HEK-Blue cells overexpressing human TLR8, R848 15.9 μM stimulation
Experimental: as §1, §2

Chain of human TLR7 (Q9NYK1 27-1049): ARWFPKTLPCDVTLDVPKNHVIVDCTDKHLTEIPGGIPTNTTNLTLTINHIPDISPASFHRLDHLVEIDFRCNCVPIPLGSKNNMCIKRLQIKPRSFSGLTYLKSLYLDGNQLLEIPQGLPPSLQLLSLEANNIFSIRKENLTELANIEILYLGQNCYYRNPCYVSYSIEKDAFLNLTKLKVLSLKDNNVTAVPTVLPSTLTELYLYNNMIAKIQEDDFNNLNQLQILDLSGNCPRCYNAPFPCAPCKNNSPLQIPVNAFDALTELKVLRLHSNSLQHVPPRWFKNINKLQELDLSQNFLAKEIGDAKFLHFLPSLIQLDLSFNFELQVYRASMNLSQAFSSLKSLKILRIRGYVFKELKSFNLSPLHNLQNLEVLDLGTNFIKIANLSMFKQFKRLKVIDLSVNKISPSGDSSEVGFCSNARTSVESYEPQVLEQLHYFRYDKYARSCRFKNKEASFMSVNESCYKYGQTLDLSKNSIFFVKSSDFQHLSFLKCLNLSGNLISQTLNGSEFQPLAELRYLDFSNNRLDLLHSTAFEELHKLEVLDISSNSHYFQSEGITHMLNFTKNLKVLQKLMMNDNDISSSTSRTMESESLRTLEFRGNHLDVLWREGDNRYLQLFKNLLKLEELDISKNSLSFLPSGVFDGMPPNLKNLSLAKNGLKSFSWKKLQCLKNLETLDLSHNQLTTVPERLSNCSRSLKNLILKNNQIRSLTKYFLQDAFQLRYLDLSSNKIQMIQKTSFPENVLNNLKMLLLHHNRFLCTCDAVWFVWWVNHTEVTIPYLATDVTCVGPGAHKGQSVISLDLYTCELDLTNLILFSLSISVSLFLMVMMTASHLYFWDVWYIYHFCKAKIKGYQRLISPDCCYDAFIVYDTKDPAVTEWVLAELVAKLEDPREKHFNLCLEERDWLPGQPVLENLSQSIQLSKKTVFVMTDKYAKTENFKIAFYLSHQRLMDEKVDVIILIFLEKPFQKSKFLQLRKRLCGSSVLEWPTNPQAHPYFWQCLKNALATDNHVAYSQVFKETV
Chain of human TLR9 (Q9NR96 26-1032): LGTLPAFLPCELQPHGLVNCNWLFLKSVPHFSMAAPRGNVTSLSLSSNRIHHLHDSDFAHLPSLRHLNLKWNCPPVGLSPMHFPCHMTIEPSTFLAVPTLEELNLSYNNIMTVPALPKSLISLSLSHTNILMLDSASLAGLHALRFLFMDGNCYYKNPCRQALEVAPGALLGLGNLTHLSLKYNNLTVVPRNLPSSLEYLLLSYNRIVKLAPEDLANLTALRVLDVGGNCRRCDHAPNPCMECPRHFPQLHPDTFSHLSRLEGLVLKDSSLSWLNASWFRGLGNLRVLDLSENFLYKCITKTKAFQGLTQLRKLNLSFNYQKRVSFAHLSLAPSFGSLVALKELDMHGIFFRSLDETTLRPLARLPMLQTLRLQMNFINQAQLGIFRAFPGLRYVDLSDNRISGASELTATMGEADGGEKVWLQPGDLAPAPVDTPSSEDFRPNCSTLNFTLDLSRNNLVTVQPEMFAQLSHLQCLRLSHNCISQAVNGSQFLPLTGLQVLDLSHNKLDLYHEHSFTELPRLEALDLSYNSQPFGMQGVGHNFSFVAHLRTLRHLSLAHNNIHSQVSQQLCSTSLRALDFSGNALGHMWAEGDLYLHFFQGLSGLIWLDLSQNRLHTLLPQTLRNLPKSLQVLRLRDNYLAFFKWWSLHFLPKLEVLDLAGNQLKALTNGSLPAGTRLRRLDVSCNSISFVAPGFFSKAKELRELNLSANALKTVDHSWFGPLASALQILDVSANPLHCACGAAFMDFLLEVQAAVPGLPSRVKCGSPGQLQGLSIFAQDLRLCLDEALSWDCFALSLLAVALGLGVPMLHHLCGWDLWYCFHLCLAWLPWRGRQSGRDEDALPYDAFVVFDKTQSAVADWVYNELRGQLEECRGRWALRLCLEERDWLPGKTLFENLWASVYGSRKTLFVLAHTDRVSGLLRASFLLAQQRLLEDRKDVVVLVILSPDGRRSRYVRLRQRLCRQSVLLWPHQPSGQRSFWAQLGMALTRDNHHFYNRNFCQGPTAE
Chain of human TLR8 (Q9NR97 27-1041): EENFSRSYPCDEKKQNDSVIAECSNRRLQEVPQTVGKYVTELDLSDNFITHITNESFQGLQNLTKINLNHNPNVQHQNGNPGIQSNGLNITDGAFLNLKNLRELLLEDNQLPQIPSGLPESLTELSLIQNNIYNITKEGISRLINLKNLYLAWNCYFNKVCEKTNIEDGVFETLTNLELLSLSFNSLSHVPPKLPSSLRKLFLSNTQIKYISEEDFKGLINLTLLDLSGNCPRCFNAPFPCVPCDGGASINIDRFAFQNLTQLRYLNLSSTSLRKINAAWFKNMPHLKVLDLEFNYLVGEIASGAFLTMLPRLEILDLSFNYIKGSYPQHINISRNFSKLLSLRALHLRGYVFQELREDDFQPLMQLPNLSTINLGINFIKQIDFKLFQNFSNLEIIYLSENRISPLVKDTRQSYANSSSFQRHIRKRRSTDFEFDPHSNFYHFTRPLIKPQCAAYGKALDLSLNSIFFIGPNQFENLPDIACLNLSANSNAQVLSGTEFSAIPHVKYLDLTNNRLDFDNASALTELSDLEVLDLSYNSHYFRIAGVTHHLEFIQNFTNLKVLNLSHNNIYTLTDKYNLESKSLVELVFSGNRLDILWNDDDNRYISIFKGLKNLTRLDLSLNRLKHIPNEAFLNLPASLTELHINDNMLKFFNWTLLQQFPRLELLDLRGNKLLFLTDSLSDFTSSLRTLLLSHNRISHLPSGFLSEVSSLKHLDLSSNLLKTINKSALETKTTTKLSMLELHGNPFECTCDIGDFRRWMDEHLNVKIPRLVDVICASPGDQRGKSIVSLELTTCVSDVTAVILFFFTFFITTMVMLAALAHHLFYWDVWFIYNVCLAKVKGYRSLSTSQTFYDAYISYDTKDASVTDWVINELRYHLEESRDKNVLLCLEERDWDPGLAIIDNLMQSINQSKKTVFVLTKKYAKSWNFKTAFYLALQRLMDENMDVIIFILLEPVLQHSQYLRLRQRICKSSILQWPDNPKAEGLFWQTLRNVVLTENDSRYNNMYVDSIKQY

Question: For `COc1ccc(-c2[nH]c3ccc(-c4cccc(C(=O)N5CCNCC5)c4)cc3c2C(C)C)cc1OC` [Example 1, 2-(3,4-dimethoxyphenyl)-5-[3-(piperazine-1-carbonyl)phenyl]-3-(propan-2-yl)-1H-indole], which IC50 (human TLR7) is on record?
Answer: 107 nM

Question: And the IC50 (human TLR9)?
Answer: 2060 nM

Question: And the IC50 (human TLR8)?
Answer: 9 nM

Question: What does the source list for `COc1ccc(-c2[nH]c3ccc(-c4nnc(C5CCN(C(=O)CN(C)C)CC5)o4)cc3c2C(C)C)cc1OC` [Example 3, 1-(4-{5-[2-(3,4-dimethoxyphenyl)-3-(propan-2-yl)-1H-indol-5-yl]-1,3,4-oxadiazol-2-yl}piperidin-1-yl)-2-(dimethylamino)ethan-1-one]?
Answer: IC50 (human TLR7): 28 nM; IC50 (human TLR9): 1230 nM; IC50 (human TLR8): 13 nM

Question: How did the IC50 (human TLR7) turn out when `COc1ccc(-c2[nH]c3ccc(-c4nnc(C5CCN(C(C)C)CC5)o4)cc3c2C(C)C)cc1OC` [Example 4, 2-(3,4-dimethoxyphenyl)-3-(propan-2-yl)-5-{5-[1-(propan-2-yl)piperidin-4-yl]-1,3,4-oxadiazol-2-yl}-1H-indole] was run?
Answer: 78 nM

Question: What about the IC50 (human TLR9) of the same molecule?
Answer: 979 nM

Question: What about the IC50 (human TLR8) of the same molecule?
Answer: 9 nM

Question: With `COc1ccc(-c2[nH]c3ccc(-c4cccc(C(=O)N5CCCN(C)CC5)c4)cc3c2C(C)C)cc1OC` [Example 5, (3-(2-(3,4-dimethoxyphenyl)-3-isopropyl-1H-indol-5-yl)phenyl)(4-methyl-1,4-diazepan-1-yl)methanone] as the molecule, how does the IC50 (human TLR7) read?
Answer: 121 nM

Question: What about the IC50 (human TLR9) of the same molecule?
Answer: 3290 nM

Question: What about the IC50 (human TLR8) of the same molecule?
Answer: 6.8 nM

Question: What does the source list for `COc1ccc(-c2[nH]c3ccc(-c4cccc(C(=O)N[C@H]5CC[C@H](N)CC5)c4)cc3c2C(C)C)cc1OC` [Example 6]?
Answer: IC50 (human TLR7): 121 nM; IC50 (human TLR9): 2780 nM; IC50 (human TLR8): 42 nM

Question: Which results are given for `COc1ccc(-c2[nH]c3ccc(-c4cccc(C(=O)N[C@H]5CC[C@H](C(C)(C)O)CC5)c4)cc3c2C(C)C)cc1OC` [Example 7, 3-(2-(3,4-dimethoxyphenyl)-3-isopropyl-1H-indol-5-yl)-N-((1r,4r)-4-(2-hydroxypropan-2-yl)cyclohexyl)benzamide]?
Answer: IC50 (human TLR7): 1790 nM; IC50 (human TLR9): > 50000 nM; IC50 (human TLR8): 19 nM

Question: Which IC50 (human TLR7) does the source give for `COc1ccc(-c2[nH]c3ccc(-c4cccc(C(=O)NC5CCN(C(C)C)CC5)c4)cc3c2C(C)C)cc1OC` [Example 8, 3-(2-(3,4-dimethoxyphenyl)-3-isopropyl-1H-indol-5-yl)-N-(1-isopropylpiperidin-4-yl)benzamide] here?
Answer: 114 nM

Question: And the IC50 (human TLR9)?
Answer: 1810 nM

Question: What about the IC50 (human TLR8) of the same molecule?
Answer: 29 nM

Question: Which IC50 (human TLR7) does the source give for `COc1ccc(-c2[nH]c3ccc(-c4cccc(C(=O)N5CC6CNCC6C5)c4)cc3c2C(C)C)cc1OC` (stereo not drawn) [Example 9, (3-(2-(3,4-dimethoxyphenyl)-3-isopropyl-1H-indol-5-yl)phenyl)(hexahydropyrrolo[3,4-c]pyrrol-2(1H)-yl)methanone] here?
Answer: 108 nM

Question: What about the IC50 (human TLR9) of the same molecule?
Answer: 744 nM

Question: What about the IC50 (human TLR8) of the same molecule?
Answer: 4.1 nM

Question: What does the source list for `COc1ccc(-c2[nH]c3ccc(-c4ccnc(C(=O)N5CCCN(C)CC5)c4)cc3c2C(C)C)cc1OC` [Example 10, (4-(2-(3,4-dimethoxyphenyl)-3-isopropyl-1H-indol-5-yl)pyridin-2-yl)(4-methyl-1,4-diazepan-1-yl)methanone]?
Answer: IC50 (human TLR7): 35 nM; IC50 (human TLR9): 673 nM; IC50 (human TLR8): 6 nM

Question: With `COc1ccc(-c2[nH]c3ccc(-c4cccc(C(=O)N5CCN(C(=O)C6CCCO6)CC5)c4)cc3c2CC(F)(F)F)cc1OC` (stereo not drawn) [Example 33, (4-(3-(2-(3,4-dimethoxyphenyl)-3-(2,2,2-trifluoroethyl)-1H-indol-5-yl)benzoyl)piperazin-1-yl)(tetrahydrofuran-2-yl)methanone] as the molecule, how does the IC50 (human TLR7) read?
Answer: 1330 nM

Question: What about the IC50 (human TLR8) of the same molecule?
Answer: 53 nM

Question: `CC(C)c1c(-c2ccc3nccn3c2)[nH]c2ccc(-c3nnc([C@@H]4CCCNC4)o3)cc12` [Example 244, (R)-2-(2-(imidazo[1,2-a]pyridin-6-yl)-3-isopropyl-1H-indol-5-yl)-5-(piperidin-3-yl)-1,3,4-oxadiazole] was tested. Which IC50 (human TLR7) did it give?
Answer: 153 nM

Question: And the IC50 (human TLR8)?
Answer: 422 nM

Question: Which IC50 (human TLR7) does the source give for `Cc1cc(-c2[nH]c3ccc(-c4nc(C(=O)NC5CCN(C(C)C)CC5)co4)cc3c2C(C)C)cc(C)n1` [Example 249, 2-(2-(2,6-dimethylpyridin-4-yl)-3-isopropyl-1H-indol-5-yl)-N-(1-isopropylpiperidin-4-yl)oxazole-4-carboxamide] here?
Answer: 27 nM

Question: And the IC50 (human TLR8)?
Answer: 7.5 nM

Question: For `Cc1cc(-c2[nH]c3ccc(-c4ccc(N5CCN(C(C)C)CC5)nc4)cc3c2C(C)C)ccn1` [Example 302, 3-isopropyl-5-(6-(4-isopropylpiperazin-1-yl)pyridin-3-yl)-2-(2-methylpyridin-4-yl)-1H-indole], which IC50 (human TLR9) is on record?
Answer: 2320 nM

Question: And the IC50 (human TLR8)?
Answer: 28 nM

Question: Which results are given for `Cc1cc(-c2[nH]c3ccc(-c4nc5c(s4)CCNC5)cc3c2C(C)C)cc(C)n1` [Example 310, 2-(2-(2,6-dimethylpyridin-4-yl)-3-isopropyl-1H-indol-5-yl)-4,5,6,7-tetrahydrothiazolo[4,5-c]pyridine]?
Answer: IC50 (human TLR7): 3.4 nM; IC50 (human TLR9): 647 nM

Question: How did the IC50 (human TLR7) turn out when `Cc1cc(-c2[nH]c3ccc(-c4ccc(NC(=O)C5CC(=O)N(C)C5)nc4)cc3c2C(C)C)ccn1` (stereo not drawn) [Example 332, N-(5-(3-isopropyl-2-(2-methylpyridin-4-yl)-1H-indol-5-yl)pyridin-2-yl)-1-methyl-5-oxopyrrolidine-3-carboxamide] was run?
Answer: 14 nM

Question: What about the IC50 (human TLR8) of the same molecule?
Answer: 1.9 nM

Question: `CCc1c(-c2ccc(OC)c(OC)c2)[nH]c2ccc(-c3cccc(CN4CCN(C)CC4)c3)cc12` [Example 368, 2-(3,4-dimethoxyphenyl)-3-ethyl-5-(3-((4-methylpiperazin-1-yl)methyl)phenyl)-1H-indole] was tested. Which IC50 (human TLR7) did it give?
Answer: 2530 nM

Question: What about the IC50 (human TLR8) of the same molecule?
Answer: 230 nM

Question: What does the source list for `CC(C)c1c(-c2ccnc3[nH]ncc23)[nH]c2ccc(-c3ccc(C(C)N4CCOCC4)cc3)cc12` (stereo not drawn) [Example 372, 4-(1-(4-(3-isopropyl-2-(1H-pyrazolo[3,4-b]pyridin-4-yl)-1H-indol-5-yl)phenyl)ethyl)morpholine]?
Answer: IC50 (human TLR7): 250 nM; IC50 (human TLR8): 13 nM

Question: `COc1ccc(-c2[nH]c3ccc(-c4ccc(N5CCN(CC(C)C)CC5)nc4)cc3c2C(C)C)cc1OC` [Example 391, 2-(3,4-dimethoxyphenyl)-5-(6-(4-isobutylpiperazin-1-yl)pyridin-3-yl)-3-isopropyl-1H-indole] was tested. Which IC50 (human TLR9) did it give?
Answer: 4360 nM

Question: And the IC50 (human TLR8)?
Answer: 73 nM

Question: Which results are given for `COc1ccc(-c2[nH]c3ccc(-c4ccc(-c5cncc6ccccc56)cc4)cc3c2C(C)C)cc1OC` [Example 407, 4-(4-(2-(3,4-dimethoxyphenyl)-3-isopropyl-1H-indol-5-yl)phenyl)isoquinoline]?
Answer: IC50 (human TLR9): 290 nM; IC50 (human TLR8): > 50000 nM

Question: Which results are given for `COc1ccc(-c2ccc3[nH]c(-c4ccnc5[nH]ncc45)c(C(C)C)c3c2)cn1` [Example 422, 4-(3-isopropyl-5-(6-methoxypyridin-3-yl)-1H-indol-2-yl)-1H-pyrazolo[3,4-b]pyridine]?
Answer: IC50 (human TLR7): 4100 nM; IC50 (human TLR8): 662 nM

Question: With `COc1ccc(-c2[nH]c3ccc(-c4ccnc(N5CCN(Cc6ccsc6)CC5)c4)cc3c2C(C)C)cc1OC` [Example 423, 2-(3,4-dimethoxyphenyl)-3-isopropyl-5-(2-(4-(thiophen-3-ylmethyl)piperazin-1-yl)pyridin-4-yl)-1H-indole] as the molecule, how does the IC50 (human TLR7) read?
Answer: 1400 nM

Question: What about the IC50 (human TLR9) of the same molecule?
Answer: 8760 nM

Question: What does the source list for `COc1ccc(-c2[nH]c3ccc(-c4ccnc(N5CCN(CCC(F)(F)F)CC5)c4)cc3c2C(C)C)cc1OC` [Example 424, 2-(3,4-dimethoxyphenyl)-3-isopropyl-5-(2-(4-(3,3,3-trifluoropropyl)piperazin-1-yl)pyridin-4-yl)-1H-indole]?
Answer: IC50 (human TLR7): 2590 nM; IC50 (human TLR9): > 50000 nM

Question: What does the source list for `COc1ccc(-c2[nH]c3ccc(-c4ccnc(N5CCN(CCC(C)O)CC5)c4)cc3c2C(C)C)cc1OC` (stereo not drawn) [Example 425, 4-(4-(4-(2-(3,4-dimethoxyphenyl)-3-isopropyl-1H-indol-5-yl)pyridin-2-yl)piperazin-1-yl)butan-2-ol]?
Answer: IC50 (human TLR7): 1490 nM; IC50 (human TLR9): 7070 nM

Question: With `COc1ccc(-c2[nH]c3ccc(-c4cnc(N5CCN(Cc6ccsc6)CC5)nc4)cc3c2C(C)C)cc1OC` [Example 429, 2-(3,4-dimethoxyphenyl)-3-isopropyl-5-(2-(4-(thiophen-3-ylmethyl)piperazin-1-yl)pyrimidin-5-yl)-1H-indole] as the molecule, how does the IC50 (human TLR7) read?
Answer: 1280 nM

Question: And the IC50 (human TLR9)?
Answer: > 50000 nM

Question: How did the IC50 (human TLR7) turn out when `COc1ccc(-c2[nH]c3ccc(-c4cnc(N5CCN(Cc6cccn6C)CC5)nc4)cc3c2C(C)C)cc1OC` [Example 430, 2-(3,4-dimethoxyphenyl)-3-isopropyl-5-(2-(4-((1-methyl-1H-pyrrol-2-yl)methyl)piperazin-1-yl)pyrimidin-5-yl)-1H-indole] was run?
Answer: 1340 nM

Question: What about the IC50 (human TLR9) of the same molecule?
Answer: 11900 nM

Question: Which IC50 (human TLR7) does the source give for `COc1ccc(-c2[nH]c3ccc(-c4cnc(N5CCN(CC(C)C)CC5)n4C)cc3c2C(C)C)cc1OC` [Example 433, 2-(3,4-dimethoxyphenyl)-5-(2-(4-isobutylpiperazin-1-yl)-1-methyl-1H-imidazol-5-yl)-3-isopropyl-1H-indole] here?
Answer: 145 nM

Question: And the IC50 (human TLR9)?
Answer: 2110 nM

Question: Which results are given for `COc1ccc(-c2[nH]c3ccc(-c4cnc(Cl)n4C)cc3c2C(C)C)cc1OC` [Example 437, 5-(2-chloro-1-methyl-1H-imidazol-5-yl)-2-(3,4-dimethoxyphenyl)-3-isopropyl-1H-indole]?
Answer: IC50 (human TLR7): 896 nM; IC50 (human TLR9): 42100 nM
